pIC50: −log10 of the molar value.
What follows are compounds tested on AGS cells (KRAS^G12D) (assay: Detection of cell proliferation in vitro by MTT/MTS method (cell activity experiment)). Conditions: AGS cells; MTT/MTS; 3 days of drug treatment; read-out: AGS IC50.
Type: cell-based
Outline: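 KRAS G12D AGS cells seeded at 1000 per well, compound added 24 h later, 0.5% final DMSO. Viability read after 3 days of treatment by MTT (solubilised in DMSO) or MTS, 4 h, absorbance 490 nm. IC50 from dose–response curves versus DMSO control.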
Work on C#Cc1c(F)ccc2cc(O)cc(-c3ccc4c(N5C[C@H]6CC[C@@H](C5)[C@@H]6SC)nc(OC[C@@]56CCCN5C[C@H](F)C6)nc4c3F)c12 [Example 129, 5-ethynyl-6-fluoro-4-(8-fluoro-2-(((2R,7aS)-2-fluorotetrahydro-1H-pyrrolizin-7a(5H)-yl)methoxy)-4-((1R, 5S,8R)-8-(methylthio)-3-azabicyclo[3.2.1]octan-3-yl)quinazolin-7-yl)naphthalen-2-ol] yielded a pIC50 of under 5.60.
With CC1CCCc2cc(O)cc(-c3ccc4c(N5C[C@H]6CC[C@@H](C5)N6)nc(OC[C@@]56CCCN5C[C@H](F)C6)nc4c3F)c21 (single isomer, unassigned) [Example 287] the pIC50 was 5.67.
Work on CCc1c(F)ccc2cc(O)cc(-c3ccc4c(N5C[C@H]6CC[C@@H](C5)[C@@H]6F)nc(OC[C@@]56CCCN5C[C@H](F)C6)nc4c3F)c12 [Example 124, 5-ethyl-6-fluoro-4-(8-fluoro-4-((1R,5S, 8R)-8-fluoro-3-azabicyclo[3.2.1]octan-3-yl)-2-(((2R,7aS)-2-fluorotetrahydro-1H-pyrrolizin-7a(5H)-yl)methoxy)quinazolin-7-yl)naphthalen-2-ol] yielded a pIC50 of under 5.60.
With C#Cc1c(F)ccc2cc(O)cc(-c3ccc4c(N5C[C@H]6CC[C@@H](C5)[C@@H]6C#N)nc(OC[C@@]56CCCN5C[C@H](F)C6)nc4c3F)c12 [Example 127, (1R,5S,8S)-3-(7-(8-ethynyl-7-fluoro-3-hydroxynaphthalen-1-yl)-8-fluoro-2-(((2R,7aS)-2-fluorotetrahydro-1H-pyrrolizin-7a(5H)-yl)methoxy)quinazolin-4-yl)-3-azabicyclo [3.2.1]octane-8-carbonitrile] the pIC50 was under 5.60.
With Oc1cc2c(c(-c3ncc4c(N5C[C@H]6CC[C@@H](C5)N6)nc(OC[C@@]56CCCN5C[C@H](F)C6)nc4c3F)c1)CCCC2 [Example 419, 4-(4-((1R,5S)-3,8-diazabicyclo[3.2.1]octan-3-yl)-8-fluoro-2-(((2R,7aS)-2-fluorotetrahydro-1H-pyrrolizin-7a(5H)-yl)methoxy)pyrido[4,3-d]pyrimidin-7-yl)-5,6,7,8-tetrahydronaphthalen-2-ol] the pIC50 was 7.85.

Same assay, conditions: Homo sapiens, AGS, 72 h, AGS cells; MTT/MTS; 3 days of drug treatment; read-out: AGS IC50
C#Cc1c(F)ccc2cc(O)cc(-c3ccc4c(N5C[C@H]6CC[C@@H](C5)S6(=O)=O)nc(OC[C@@]56CCCN5C[C@H](F)C6)nc4c3F)c12 [Example 160, (1R,5S)-3-(7-(8-ethynyl-7-fluoro-3-hydroxynaphthalen-1-yl)-8-fluoro-2-(((2R,7aS)-2-fluorotetrahydro-1H-pyrrolizin-7a(5H)-yl)methoxy)quinazolin-4-yl)-8-thia-3-azabicyclo[3.2.1]octane 8,8-dioxide] gave a pIC50 of under 5.60.
Oc1cc2c(c(-c3ncc4c(N5C[C@H]6CC[C@@H](C5)N6)nc(OC[C@@]56CCCN5C[C@H](F)C6)nc4c3F)c1)CC1(CC1)C2 [Example 300, 4′-(4-((1R,5S)-3,8-diazabicyclo[3.2.1]octan-3-yl)-8-fluoro-2-(((2R,7aS)-2-fluorotetrahydro-1H-pyrrolizin-7a(5H)-yl)methoxy)pyrido[4,3-d]pyrimidin-7-yl)-1′,3′-dihydrospiro[cyclopropane-1,2′-inden]-6′-ol] gave a pIC50 of 6.75.
Work on C#Cc1c(F)ccc2cc(O)cc(-c3ncc4c(N5CCC(N)C5)nc(OC[C@@]56CCCN5C[C@H](F)C6)nc4c3F)c12 (stereo partly drawn) [Example 51, 4-(4-(3-aminopyrrolidin-1-yl)-8-fluoro-2-(((2R, 7aS)-2-fluorotetrahydro-1H-pyrrolizin-7a(5H)-yl)methoxy)pyrido[4,3-d]pyrimidin-7-yl)-5-ethynyl-6-fluoronaphthalen-2-ol] yielded a pIC50 of 5.78.
For C#Cc1cccc2cc(O)cc(-c3ccc4c(N5C[C@H]6CC[C@@H](C5)N6)nc(OCC5(CN6CCCC6)CC5)nc4c3F)c12 [Example 103, 4-(4-((1R,5S)-3,8-diazabicyclo[3.2.1]octan-3-yl)-8-fluoro-2-((1-(pyrrolidin-1-ylmethyl)cyclopropyl)methoxy)quinazolin-7-yl)-5-ethynylnaphthalen-2-ol], the pIC50 was 7.54.
C#Cc1c(F)ccc2cc(O)cc(-c3ncc4c(-c5cn(C(=O)CO)cn5)nc(OC[C@@]56CCCN5C[C@H](F)C6)nc4c3F)c12 [Example 88, 1-(4-(7-(8-ethynyl-7-fluoro-3-hydroxynaphthalen-1-yl)-8-fluoro-2-(((2R, 7aS)-2-fluorotetrahydro-1H-pyrrolizin-7a(5H)-yl)methoxy)pyrido[4,3-d]pyrimidin-4-yl)-1H-imidazol-1-yl)-2-hydroxyethan-1-one] was tested, and the pIC50 was under 5.00.
Work on CC1CCCc2cc(O)cc(C3=C(F)c4nc(OC[C@@]56CCCN5C[C@H](F)C6)nc(N5C[C@H]6CC[C@@H](C5)N6)c4C4=NCCN43)c21 (stereo partly drawn) [Example 407, 4-(10-((1R,5S)-3,8-diazabicyclo[3.2.1]octan-3-yl)-6-fluoro-8-(((2R,7aS)-2-fluorotetrahydro-1H-pyrrolizin-7a(5H)-yl)methoxy)-2,3-dihydroimidazo[1′,2′:1,2]pyrido[4,3-d]pyrimidin-5-yl)-5-methyl-5,6,7,8-tetrahydronaphthalen-2-ol] yielded a pIC50 of 7.46.
With CCc1c(F)ccc2cc(O)cc(-c3ncc4c(N5C[C@H]6CC[C@@H](C5)O6)nc(OC[C@@]56CCCN5C[C@H](F)C6)nc4c3F)c12 [Example 13, 4-(4-((1R,5S)-8-oxa-3-azabicyclo[3.2.1]octan-3-yl)-8-fluoro-2-(((2R,7aS)-2-fluorotetrahydro-1H-pyrrolizin-7a(5H)-yl)methoxy)pyrido[4,3-d]pyrimidin-7-yl)-5-ethyl-6-fluoronaphthalen-2-ol] the pIC50 was 6.49.
Work on Oc1cc(-c2ccc3c(N4C[C@H]5CC[C@@H](C4)C5(F)F)nc(OC[C@@]45CCCN4C[C@H](F)C5)nc3c2F)c2c(F)c(F)ccc2c1 [Example 122, 4-(4-((1R,5S)-8,8-difluoro-3-azabicyclo [3.2.1]octan-3-yl)-8-fluoro-2-(((2R,7aS)-2-fluorotetrahydro-1H-pyrrolizin-7a(5H)-yl)methoxy)quinazolin-7-yl)-5,6-difluoronaphthalen-2-ol] yielded a pIC50 of under 5.60.
C#Cc1c(F)ccc2cc(O)cc(-c3ccc4c(N5CC6(CNC6)C5)nc(OC[C@@]56CCCN5C[C@H](F)C6)nc4c3F)c12 [Example 135, 5-ethynyl-6-fluoro-4-(8-fluoro-2-(((2R, 7aS)-2-fluorotetrahydro-1H-pyrrolizin-7a(5H)-yl)methoxy)-4-(2,6-diazaspiro[3.3]heptan-2-yl)quinazolin-7-yl)naphthalen-2-ol] gave a pIC50 of 5.92.
In the case of CCc1c(F)ccc2cc(O)cc(-c3ccc4c(N5C[C@H]6CC[C@@H](C5)S6)nc(OC[C@@]56CCCN5C[C@H](F)C6)nc4c3F)c12 [Example 161, 4-(4-((1R,5S)-8-thia-3-azabicyclo[3.2.1]octan-3-yl)-8-fluoro-2-(((2R,7aS)-2-fluorotetrahydro-1H-pyrrolizin-7a(5H)-yl)methoxy)quinazolin-7-yl)-5-ethyl-6-fluoronaphthalen-2-ol], the pIC50 was 6.63.
CN1CCc2cc(O)cc(-c3ncc4c(N5C[C@H]6CC[C@@H](C5)N6)nc(OC[C@@]56CCCN5C[C@H](F)C6)nc4c3F)c2C1=O [Example 273, 8-(4-((1R,5S)-3,8-diazabicyclo[3.2.1]octan-3-yl)-8-fluoro-2-(((2R,7aS)-2-fluorotetrahydro-1H-pyrrolizin-7a(5H)-yl)methoxy)pyrido[4,3-d]pyrimidin-7-yl)-6-hydroxy-2-methyl-3,4-dihydroisoquinolin-1(2H)-one] was tested, and the pIC50 was under 5.60.
In the case of Oc1cc2c(c(-c3ncc4c(N5C[C@H]6CC[C@@H](C5)N6)nc(OC[C@@]56CCCN5C[C@H](F)C6)nc4c3F)c1)C1CC1CC2 (stereo partly drawn) [Example 246, 7-(4-((1R,5S)-3,8-diazabicyclo[3.2.1]octan-3-yl)-8-fluoro-2-(((2R,7aS)-2-fluorotetrahydro-1H-pyrrolizin-7a(5H)-yl)methoxy)pyrido[4,3-d]pyrimidin-7-yl)-1a,2,3,7b-tetrahydro-1H-cyclopropa[a]naphthalen-5-ol], the pIC50 was 6.96.
In the case of Oc1cc(-c2ncc3c(N4C[C@H]5CC[C@@H](C4)O5)nc(OC[C@@]45CCCN4C[C@H](F)C5)nc3c2F)c2c(F)c(F)ccc2c1 [Example 16, 4-(4-((1R,5S)-8-oxa-3-azabicyclo[3.2.1]octan-3-yl)-8-fluoro-2-(((2R,7aS)-2-fluorotetrahydro-1H-pyrrolizin-7a(5H)-yl)methoxy)pyrido[4,3-d]pyrimidin-7-yl)-5,6-difluoronaphthalen-2-ol], the pIC50 was 6.50.
With C#Cc1c(F)ccc2cc(O)cc(-c3ncc4c(C5CCN(C(=O)CO)C5)nc(OC[C@@]56CCCN5C[C@H](F)C6)nc4c3F)c12 (stereo partly drawn) [Example 84, 1-(3-(7-(8-ethynyl-7-fluoro-3-hydroxynaphthalen-1-yl)-8-fluoro-2-(((2R,7aS)-2-fluorotetrahydro-1H-pyrrolizin-7a(5H)-yl)methoxy)pyrido[4,3-d]pyrimidin-4-yl)pyrrolidin-1-yl)-2-hydroxyethan-1-one] the pIC50 was under 5.00.
CCC1CCc2cc(O)cc(-c3c(Cl)cc4c(N5C[C@H]6CC[C@@H](C5)N6)nc(OC[C@@]56CCCN5C[C@H](F)C6)nc4c3F)c21 (stereo partly drawn) [Example 302, 7-(4-((1R,5S)-3,8-diazabicyclo[3.2.1]octan-3-yl)-6-chloro-8-fluoro-2-(((2R,7aS)-2-fluorotetrahydro-1H-pyrrolizin-7a(5H)-yl)methoxy)quinazolin-7-yl)-1-ethyl-2,3-dihydro-1H-inden-5-ol] was tested, and the pIC50 was 7.66.
CCc1c(F)ccc2cc(O)cc(-c3ncc4c(N5C[C@H]6CC[C@@H](C5)N6)c(C(F)(F)F)c(OC[C@@]56CCCN5C[C@H](F)C6)nc4c3F)c12 [Example 197, 4-(4-((1R,5S)-3,8-diazabicyclo[3.2.1]octan-3-yl)-8-fluoro-2-(((2R,7aS)-2-fluorotetrahydro-1H-pyrrolizin-7a(5H)-yl)methoxy)-3-(trifluoromethyl)-1,6-naphthyridin-7-yl)-5-ethyl-6-fluoronaphthalen-2-ol] showed a pIC50 of under 5.60.

Source: US20240300980A1, “HETEROCYCLIC COMPOUNDS AS KRAS INHIBITOR, AND PREPARATION THEREFOR AND USE THEREOF IN TREATMENT” (SHANGHAI KECHOW PHARMA, INC., priority 2021, published 2024)
